Converted amounts (≈) assume the structure as drawn. The source made the active and inactive calls. The calls are words filed in the database; no cut-off is given here.
How the values were obtained:
Pseudomonas fluorescens = test: Antimicrobial activity against Pseudomonas fluorescens; type: functional
Staphylococcus aureus = test: Antimicrobial activity against Staphylococcus aureus; type: functional
Aspergillus fumigatus = test: Antimicrobial activity against Aspergillus fumigatus; type: functional
Rhizopus arrhizus = test: Antimicrobial activity against Rhizopus oryzae; type: functional
Escherichia coli [1] = test: Induction of membrane disruption in Escherichia coli assessed as blurred membranes at MIC after 60 mins by SEM analysis; type: functional, organism-based
[2] = Hemolytic activity in human RBC at 25 ug/ml relative to control; type: ADME, cell-based, Erythrocyte; details: red blood cells (erythrocytes), read-out: Activity
Candida albicans = test: Antimicrobial activity against Candida albicans; type: functional
Escherichia coli [3] = test: Induction of membrane disruption in Escherichia coli assessed as deflated membranes at MIC after 60 mins by SEM analysis; type: functional, organism-based
Escherichia coli [4] = test: Antimicrobial activity against Escherichia coli; type: functional
Micrococcus luteus = test: Antimicrobial activity against Micrococcus luteus; type: functional
Escherichia coli [5] = test: Induction of membrane disruption in Escherichia coli assessed as translucent membranes at MIC after 60 mins by SEM analysis; type: functional, organism-based
Escherichia coli [6] = test: Induction of membrane permeability in Escherichia coli at MIC by DAPI/FITC/propidium iodide staining-based fluorescent microscopic analysis; type: functional, organism-based
Escherichia coli [7] = test: Disruption of membrane integrity in Escherichia coli assessed as protein leakage at MIC; type: functional, organism-based

| SMILES | MIC (Pseudomonas fluorescens) [µg/mL] | MIC (Staphylococcus aureus) [µg/mL] | MIC (Aspergillus fumigatus) [µg/mL] | MIC (Rhizopus arrhizus) [µg/mL] | Activity (Escherichia coli [1]) | hemolysis at 25 ug/ml [2] [%] | MIC (Candida albicans) [µg/mL] | Activity (Escherichia coli [3]) | MIC (Escherichia coli [4]) [µg/mL] | MIC (Micrococcus luteus) [µg/mL] | Activity (Escherichia coli [5]) | Activity (Escherichia coli [6]) | Activity (Escherichia coli [7]) |
| --- | --- | --- | --- | --- | --- | --- | --- | --- | --- | --- | --- | --- | --- |
| CN[C@@H]1[C@@H](O)[C@@H](O[C@@H]2[C@@H](O)[C@H](O[C@H]3O[C@H](CN)CC[C@H]3N)[C@@H](N)C[C@H]2N)OC[C@]1(C)O.O=S(=O)(O)O | 0.5 | 0.5 |  |  |  |  |  |  |  |  |  |  |  |
| C[C@@H]1[C@H](O)[C@@H](C)/C=C/C=C/C=C/C=C/C=C/C=C/C=C/[C@H](O[C@@H]2O[C@H](C)[C@@H](O)[C@H](N)[C@@H]2O)C[C@@H]2O[C@](O)(C[C@@H](O)C[C@@H](O)[C@H](O)CC[C@@H](O)C[C@@H](O)CC(=O)O[C@H]1C)C[C@H](O)[C@H]2C(=O)O [AMPHOTERICIN B] |  |  | 0.5 (≈ 0.541 µM) | 1 (≈ 1.08 µM) |  |  |  |  |  |  |  |  |  |
| C=C1CC[C@@H]2[C@](C)(CO)[C@H](O)CC[C@@]2(C)[C@@H]1C/C=C1/C(=O)OC[C@H]1OC(=O)CC | 32 (≈ 78.7 µM) | 4 (≈ 9.84 µM) | > 128 | > 128 | Active | 6.4 | 16 (≈ 39.4 µM) | Active | 8 (≈ 19.7 µM) | 16 (≈ 39.4 µM) | Active | Active |  |
| C=C1CC[C@@H]2[C@](C)(CO)[C@H](O)CC[C@@]2(C)[C@@H]1C/C=C1/C(=O)OC[C@H]1O [ANDROGRAPHOLIDE] | > 128 | > 128 | > 128 | > 128 |  | 8.5 | > 128 |  | > 128 | > 128 |  |  |  |
| C=C1CC[C@@H]2[C@](C)(CO)[C@H](O)CC[C@@]2(C)[C@@H]1C/C=C1/C(=O)OC[C@H]1OC(=O)CCC | 16 (≈ 38 µM) | 8 (≈ 19 µM) | > 128 | > 128 | Active | 7.1 | 64 (≈ 152 µM) | Active | 4 (≈ 9.51 µM) | 32 (≈ 76.1 µM) | Active | Active | Active |
| C=C1CC[C@@H]2[C@](C)(CO)[C@H](O)CC[C@@]2(C)[C@@H]1C/C=C1/C(=O)OC[C@H]1OC(C)=O | 4 (≈ 10.2 µM) | 16 (≈ 40.8 µM) | > 128 | > 128 |  | 4.8 | 32 (≈ 81.5 µM) |  | 64 (≈ 163 µM) | 32 (≈ 81.5 µM) |  |  | Active |
| C=C1CC[C@@H]2[C@](C)(CO)[C@H](O)CC[C@@]2(C)[C@@H]1C/C=C1/C(=O)OC[C@H]1OC(=O)CCCCCCCCCCC | > 128 | 16 (≈ 30 µM) | > 128 | > 128 |  | 46 | 32 (≈ 60.1 µM) |  | 64 (≈ 120 µM) | 16 (≈ 30 µM) |  |  | Active |
| C=C1CC[C@@H]2[C@](C)(CO)[C@H](O)CC[C@@]2(C)[C@@H]1C/C=C1/C(=O)OC[C@H]1OC(=O)CCCCCCCCC | 64 (≈ 127 µM) | 16 (≈ 31.7 µM) | > 128 | > 128 |  | 35 | > 128 |  | 32 (≈ 63.4 µM) | 64 (≈ 127 µM) |  |  | Active |

Source: ChEMBL document CHEMBL4184299, “Regioselective and efficient enzymatic synthesis of antimicrobial andrographolide derivatives” (Bioorg Med Chem Lett, 2018)
